The target of assay [1] is T1, 5-HT1A serotonin receptor (Rattus norvegicus, UniProt P19327).
T1 construct: following the procedure of Hall et al., J. Neurochem; 44, 1685 (1985); from tissue
T1 sequence (P19327 1-422): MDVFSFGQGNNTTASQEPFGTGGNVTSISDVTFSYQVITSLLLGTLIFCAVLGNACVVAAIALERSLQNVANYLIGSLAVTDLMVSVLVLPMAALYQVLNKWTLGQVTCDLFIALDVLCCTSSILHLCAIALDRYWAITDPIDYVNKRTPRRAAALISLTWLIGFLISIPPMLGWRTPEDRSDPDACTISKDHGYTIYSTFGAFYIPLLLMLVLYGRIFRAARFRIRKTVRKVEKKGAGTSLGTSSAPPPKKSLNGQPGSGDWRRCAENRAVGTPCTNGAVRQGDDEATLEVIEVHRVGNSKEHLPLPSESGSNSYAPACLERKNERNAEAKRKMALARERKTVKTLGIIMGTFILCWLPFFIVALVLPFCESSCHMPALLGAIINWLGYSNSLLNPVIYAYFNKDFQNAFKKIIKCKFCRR
The assay can be described thus: displacement of [^3 H] 8-OHDPAT (dipropylaminotetralin) from the 5-HT1A serotonin receptor (Hall et al., J. Neurochem. 44, 1685 (1985)). The following applies: read-out: 5-HT1A Binding (IC50). On the procedure: Representative compounds of the present invention were evaluated and determined to have high affinity for the serotonin 5-HT1A receptor by testing the compound's ability to displace [^3 H] 8-OHDPAT (dipropylaminotetralin) from the 5-HT1A serotonin receptor following the procedure of Hall et al., J. Neurochem. 44, 1685 (1985). […] The anxiolytic activity of buspirone is believed to be, at least partially, due to its 5-HT1A receptor affinity (Vander Maclen et al., Eur. J. Pharmacol. 1986,129 (1-2)[…]).

Assay [2] has as its system 5-HT1A serotonin receptor subtype. The following applies: buspirone as standard for anxiolytic activity; cited from earlier work.

With `COc1ccsc1C1(O)CCN(C[C@H](Cc2ccccc2)NC(=O)OC(C)(C)C)CC1` [Example 1, (S)-{1-Benzyl-2-[4-hydroxy-4-(3-methoxy-thiophen-2-yl)-piperidin-1-yl]-ethyl}-carbamic acid tert-butyl ester], the IC50 in assay [1] stood at 80 nM.

For the compound `COc1ccsc1C1=CCN(C[C@H](Cc2ccccc2)NC(=O)OC(C)(C)C)CC1` [Example 2, (S)-{1-Benzyl-2-[4-(3-methoxy-thiophen-2-yl)-3,6-dihydro-2H-pyridin-1-yl]-ethyl}-carbamic acid tert-butyl ester], the IC50 in assay [1] came to 1.6 nM. The same measure, in the same setting: next, `COc1ccsc1C1=CCN(C[C@H](Cc2ccccc2)NC(=O)C2CCCCC2)CC1` [Example 3, (S)-cyclohexanecarboxylic acid {1-benzyl-2-[4-(3-methoxy-thiophen-2-yl)-3,6-dihydro-2H-pyridin-1-yl]-ethyl}-amide]: 0.78 nM. Same read-out and setting: in the case of `COc1ccsc1C1CCN(C[C@H](Cc2ccccc2)NC(=O)C2CCCCC2)CC1` [Example 4, Cyclohexanecarboxylic acid {(1S)-1-benzyl-2-[4-(3-methoxy-thiophen-2-yl)-piperidin-1-yl]-ethyl}-amide] it was 1.1 nM. `O=C1CC2(CCCC2)CC(=O)N1CCCCN1CCN(c2ncccn2)CC1` [buspirone]: in assay [2], the “5-HT1A receptor affinity (in words)” value is reported as “potent affinity”.

As usually defined, the IC50 is the midpoint of a concentration-inhibition curve.

The values above are taken from patent publication US6110943A, “N-substituted (thiophen-2-yl)-piperidines and tetrahydropyridines as serotonergic agents” (American Home Products Corporation, priority 1999, dated 2000).
